Reference: PMC4864240, “Biotype Characterization, Developmental Profiling, Insecticide Response and Binding Property of Bemisia tabaci Chemosensory Proteins: Role of CSP in Insect Defense” (PLoS ONE, 2016)
Like-named read-outs stand apart in the source and are kept apart here.

Tests used:
Experiment in all cases: biochemical
Assay type in all cases: binding
BtabCSP1 = biological target: T1, BtabCSP1 (Bemisia tabaci, UniProt D6N3A3)
T1 sequence (D6N3A3 20-126): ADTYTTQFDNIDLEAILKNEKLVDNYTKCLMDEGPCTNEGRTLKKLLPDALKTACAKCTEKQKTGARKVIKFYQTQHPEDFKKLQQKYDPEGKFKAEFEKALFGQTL
Description: (§1) Protein-ligand binding affinity was determined for the three recombinant proteins. Emission fluorescence spectra were recorded on a Jasco FP-6500 Series fluorescence spectrofluorometer. […] Fluorescence was measured using an exciting wavelength of 337 nm. Emission spectrum was recorded between 350 and 500 nm.

BtabCSP3 = biological target: T2, BtabCSP3 (Bemisia tabaci, UniProt A0A097GUB5); settings: for IC50: displacement of 1-NPN
T2 sequence (A0A097GUB5 21-138): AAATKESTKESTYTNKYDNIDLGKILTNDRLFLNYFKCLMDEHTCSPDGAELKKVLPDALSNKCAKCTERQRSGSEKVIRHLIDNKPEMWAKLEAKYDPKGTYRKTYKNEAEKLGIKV
Description: as §1

BtabCSP2 = biological target: T3, BtabCSP2 (Bemisia tabaci, UniProt H6UKS9); settings: for IC50: displacement of 1-NPN
T3 sequence (H6UKS9 22-131): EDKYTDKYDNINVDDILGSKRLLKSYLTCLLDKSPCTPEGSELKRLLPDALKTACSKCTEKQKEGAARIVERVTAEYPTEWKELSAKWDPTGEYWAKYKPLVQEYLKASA
Description: as §1

[1] = displacement of 1-NPN, read-out: IC50, BtabCSP1
[2] = u.d. = binding constant not calculated, IC50>100 μM, read-out: BtabCSP1 Ki (u.d.)
[3] = u.d. = binding constant not calculated, IC50>100 μM, read-out: BtabCSP3 Ki (u.d.)
[4] = u.d. = binding constant not calculated, IC50>100 μM, read-out: BtabCSP2 Ki (u.d.)
[5] = competitive binding vs 1-NPN, three replicates ± SD, read-out: BtabCSP1 Ki
[6] = BtabCSP1 Ki (u.d.), u.d. = binding constant not calculated, IC50>100 μM
[7] = BtabCSP1 Ki, competitive binding vs 1-NPN, three replicates ± SD
[8] = competitive binding vs 1-NPN, three replicates ± SD, read-out: BtabCSP3 Ki

| Compound | Ki (BtabCSP1; [2]) [µM] | Ki (BtabCSP3; [3]) [µM] | Ki (BtabCSP2; [4]) [µM] | other results |
| --- | --- | --- | --- | --- |
| C=CC(C)(O)CC/C=C(\C)CCC=C(C)C (racemic) [(+/-)Nerolidol] | > 100 | > 100 | > 100 | IC50 (BtabCSP1; [1]): 14.6 to 95.1 µM |
| C=C(C)C1CC=C(C)[C@@H](O)C1 (single isomer, unassigned; (-)) [(-)-Carveol] | > 100 | > 100 | > 100 | – |
| CC12CCC(CC1)C(C)(C)O2 [1,8-Cineole] | > 100 | > 100 | > 100 | – |
| CCCCCCCO [1-Heptanol] | > 100 | > 100 | > 100 | – |
| CCCCCCO [1-Hexanol] | – | > 100 | > 100 | Ki (BtabCSP1; [5]): 46.8 ± 1.37 µM; IC50 (BtabCSP1; [1]): 14.6 to 95.1 µM |
| c1ccc(Nc2cccc3ccccc23)cc1 [1-NPN] | – | – | – | Kd (BtabCSP1; direct titration, Scatchard plot, read-out: binding constant of 1-NPN to CSP1): 11.7 µM; Kd (BtabCSP3; direct titration, Scatchard plot, read-out: binding constant of 1-NPN to CSP3): 15.3 µM; Kd (BtabCSP2; direct titration, Scatchard plot, read-out: binding constant of 1-NPN to CSP2): 20.8 µM |
| CC(=O)c1ccc(C)cc1C [2, 4′-Dimethylacetophenone] | – | – | – | Ki (BtabCSP1; [6]): > 100 µM; Ki (BtabCSP3): > 100 µM; Ki (BtabCSP2): > 100 µM |
| CCCCC(CC)CO (stereo not shown) [2-Ethyl-hexanol] | > 100 | > 100 | > 100 | – |
| CCCCCC(C)=O [2-Heptanone] | – | > 100 | > 100 | Ki (BtabCSP1; [5]): 55.3 ± 4.21 µM; IC50 (BtabCSP1; [1]): 14.6 to 95.1 µM |
| CCCCCCCCCCCCCC(C)=O [2-Pentadecanone] | > 100 | > 100 | > 100 | – |
| CC1=CCC2C(C1)C2(C)C (stereo not shown) [3-Carene] | > 100 | > 100 | > 100 | – |
| CCCC(O)CC (stereo not shown) [3-Hexanol] | > 100 | > 100 | > 100 | – |
| CC(=O)CCC=C(C)C [6-Methyl-5-hepten-2-one] | – | – | – | IC50 (BtabCSP1): 14.6 to 95.1 µM; Ki (BtabCSP1; [6]): > 100 µM; Ki (BtabCSP3): > 100 µM; Ki (BtabCSP2): > 100 µM |
| CC1(C)[C@H]2CC[C@]1(C)C(=O)C2 [(1S)-(-)-Camphor] | – | – | – | Ki (BtabCSP1; [5]): 50.8 ± 3.08 µM |
| CCC/C=C/COC(=O)CCC [(E)-2-Hexenyl butyrate] | > 100 | > 100 | > 100 | – |
| CC/C=C\CCOC(C)=O [(Z)-3-Hexenyl acetate] | > 100 | > 100 | > 100 | – |
| CCCCCOC(C)=O [Amyl acetate] | > 100 | > 100 | > 100 | – |
| O=Cc1ccccc1 [Benzaldehyde] | – | – | – | Ki (BtabCSP1; [6]): > 100 µM; Ki (BtabCSP3): > 100 µM; Ki (BtabCSP2): > 100 µM |
| C=C1CC/C=C(\C)CC[C@@H]2[C@@H]1CC2(C)C [Caryopyllene] | > 100 | > 100 | > 100 | – |

| Compound | Ki (BtabCSP1; [2]) [µM] | Ki (BtabCSP3; [3]) [µM] | Ki (BtabCSP2; [4]) [µM] | other results |
| --- | --- | --- | --- | --- |
| O=C(O)/C=C/c1ccccc1 [Cinnamic acid] | – | > 100 | > 100 | Ki (BtabCSP1; [5]): 75.5 ± 2.29 µM; IC50 (BtabCSP1; [1]): 14.6 to 95.1 µM |
| CCCCCCCCCC(=O)O [Decanoic acid] | – | – | – | IC50 (BtabCSP1): 14.6 to 95.1 µM; Ki (BtabCSP1; [6]): > 100 µM; Ki (BtabCSP3): > 100 µM; Ki (BtabCSP2): > 100 µM |
| CCCCCCCCCCCC=O [Dodecyl aldehyde] | > 100 | > 100 | > 100 | – |
| C=CC(=C)CC/C=C(\C)CCC=C(C)C [E-β-Farnesene] | > 100 | > 100 | > 100 | – |
| C=CCc1ccc(O)c(OC)c1 [Eugenol] | > 100 | > 100 | > 100 | – |
| CC(C)=CCC/C(C)=C/CO [Geraniol] | – | – | – | IC50 (BtabCSP1): 14.6 to 95.1 µM; Ki (BtabCSP1; [7]): 39.6 ± 3.01 µM; Ki (BtabCSP3): > 100 µM; Ki (BtabCSP2): > 100 µM |
| CCCCCCC=O [Heptanal] | > 100 | > 100 | > 100 | – |
| CCCCCCOC(C)=O [Hexyl acetate] | > 100 | > 100 | > 100 | – |
| CCCCCCCCCCCC(=O)O [Lauric acid] | – | > 100 | > 100 | Ki (BtabCSP1; [5]): 35.2 ± 1.42 µM |
| C=CC(C)(O)CCC=C(C)C (stereo not shown) [Linalool] | > 100 | > 100 | > 100 | IC50 (BtabCSP1; [1]): 14.6 to 95.1 µM |
| CCCCC/C=C\C/C=C\CCCCCCCC(=O)O [Linoleic acid] | – | – | > 100 | Ki (BtabCSP1; [5]): 5.78 ± 0.39 µM; IC50 (BtabCSP1; [1]): 6.7 ± 0.52 µM; Ki (BtabCSP3; [8]): 43.5 ± 2.86 µM; IC50 (BtabCSP3): 48.5 ± 3.42 µM; IC50 (BtabCSP2): > 100 µM |
| COC(=O)c1ccccc1O [Methyl salicylate] | – | > 100 | > 100 | Ki (BtabCSP1; [5]): 60 ± 2.74 µM; IC50 (BtabCSP1; [1]): 14.6 to 95.1 µM |
| C=CC(=C)CCC=C(C)C [Myrcene] | > 100 | > 100 | > 100 | IC50 (BtabCSP1; [1]): 14.6 to 95.1 µM |
| CCCCCCCCC=O [Nonanal] | > 100 | > 100 | > 100 | – |
| C=CC(C)=CCC=C(C)C [Ocimene] | > 100 | > 100 | > 100 | – |
| CCCCCCCC=O [Octanal] | > 100 | > 100 | > 100 | – |
| CCCCCCCC(=O)O [Octanoic acid] | > 100 | > 100 | > 100 | IC50 (BtabCSP1; [1]): 14.6 to 95.1 µM |
| C=C(C)[C@H]1CC=C(C)CC1 [R(+)-Limonene] | – | > 100 | > 100 | Ki (BtabCSP1; [5]): 47.8 ± 1.56 µM |
| CC(C)=CCC/C(C)=C/CC/C(C)=C/CO [Trans,trans-Farnesol] | > 100 | > 100 | > 100 | – |

| Compound | Ki (BtabCSP1; [2]) [µM] | Ki (BtabCSP3; [3]) [µM] | Ki (BtabCSP2; [4]) [µM] | other results |
| --- | --- | --- | --- | --- |
| CCC/C=C/CO [Trans-2-hexen-1-ol] | – | > 100 | > 100 | Ki (BtabCSP1; [5]): 46.1 ± 1.25 µM; IC50 (BtabCSP1; [1]): 14.6 to 95.1 µM |
| CCC/C=C/C=O [Trans-2-hexenal] | > 100 | > 100 | > 100 | – |
| CCCCC=O [Valeraldehyde] | > 100 | > 100 | > 100 | – |
| CC/C=C\CCO [Z3-Hexen-1-ol] | > 100 | > 100 | > 100 | – |
| Cc1cccc(C)c1 [m-Xylene] | – | > 100 | > 100 | Ki (BtabCSP1; [5]): 55.5 ± 3.14 µM; IC50 (BtabCSP1; [1]): 14.6 to 95.1 µM |
| CCCCCCC [n-Heptane] | > 100 | > 100 | > 100 | IC50 (BtabCSP1; [1]): 14.6 to 95.1 µM |
| CCCCCC=O [n-Hexaldehyde] | > 100 | > 100 | > 100 | – |
| CCCCCC [n-Hexane] | – | – | – | Ki (BtabCSP1; BtabCSP1 Ki (u.d.)): > 100 µM; Ki (BtabCSP3): > 100 µM; Ki (BtabCSP2): > 100 µM |
| CCCCCCCCCCCCCCC [n-Pentadecane] | > 100 | > 100 | > 100 | – |
| CCCCCCCCCCCCC [n-Tridecane] | > 100 | > 100 | > 100 | – |
| CCCCCCCCCCC [n-Undecane] | > 100 | > 100 | > 100 | – |
| CCCCCC(C=O)=Cc1ccccc1 [α-Pentyl-cinnamaldehyde] | – | – | – | Ki (BtabCSP1; [5]): 12.6 ± 1.3 µM; Ki (BtabCSP3; competitive binding vs 1-NPN, three replicates ± SD, listed as α-pentyl-cinnamaldehyde, read-out: BtabCSP3 Ki): 5.8 µM; Ki (BtabCSP3; [8]): 5.82 ± 0.31 µM; IC50 (BtabCSP3): 6.5 µM; Ki (BtabCSP2; competitive binding vs 1-NPN, three replicates ± SD, listed as α-pentyl-cinnamaldehyde, read-out: BtabCSP2 Ki): 10.3 µM; Ki (BtabCSP2; competitive binding vs 1-NPN, three replicates ± SD, read-out: BtabCSP2 Ki): 10.3 ± 1.17 µM; IC50 (BtabCSP2): 11.1 µM |
| CC1=CCC2CC1C2(C)C (stereo not drawn) [α-Pinene] | > 100 | > 100 | > 100 | – |
| CC1=CC=C(C(C)C)CC1 [α-Terpinene] | > 100 | > 100 | > 100 | IC50 (BtabCSP1; [1]): 14.6 to 95.1 µM |
| CC1=CC[C@@H](C(C)(C)O)CC1 [α-Terpineol] | > 100 | > 100 | > 100 | IC50 (BtabCSP1; [1]): 14.6 to 95.1 µM |
| CC(=O)/C=C/C1=C(C)CCCC1(C)C [β-Ionone] | – | – | – | IC50 (BtabCSP1): 14.6 to 95.1 µM; Ki (BtabCSP1; [7]): 32.1 ± 1.48 µM; Ki (BtabCSP3): > 100 µM; Ki (BtabCSP2): > 100 µM |
| C=C1CCC2CC1C2(C)C (stereo not drawn) [β-Pinene] | > 100 | > 100 | > 100 | – |
| S(-)-Limonene | – | > 100 | > 100 | Ki (BtabCSP1; [5]): 82.2 ± 3.47 µM |
